Source: patent US11680268B2, “Methods for improving CRISPR/Cas-mediated genome-editing” (Editas Medicine, Inc., priority 2014, dated 2023)

Columns and labels:
HBB locus [1] = assay: Repair outcomes at the HBB locus after Cas9 variant cleavage, Sanger sequencing of Topo clones; type: cell-based, human; conditions: U2OS cells
Source text: The different repair outcomes induced in response to DSBs introduced by different Cas9 variants were examined (FIG. 3). […] Several different DNA repair outcomes including, e.g., indel mutations resulting from non-homologous end-joining, alternative NHEJ, HDR homologous recombination (HR) using the closely related HBD gene as an endogenous template, or homology dependent repair using an exogenous donor sequence were characterized.
For some conditions, 50 pmols of single stranded oligonucleotide donor (ss-ODN) was included. Cells were collected 6 days after electroporation and genomic DNA was extracted. PCR amplification of the HBB locus was performed and subcloned into a Topo Blunt Vector. For each condition in each experiment (more the 4 independent samples) 98 colonies were analyses were sequenced with Sanger sequencing and scored for either insertions, deletions, gene conversion or gene corrections.

HBB locus [2] = assay: Deletion length at the HBB locus after Cas9 variant cleavage; type: cell-based, human; conditions: U2OS cells, gRNAs 8 and 15, 6 days after electroporation
Procedure: In this experiment, the deletions occurring in response to different end structures induced by different Cas9 variants were analyzed. […] Cells were collected 6 days after electroporation and genomic DNA was extracted. PCR amplification of the HBB locus was performed and subcloned into a Topo Blunt Vector. For each condition in each experiment (more the 4 independent samples), 98 colonies were analyses were sequenced with Sanger sequencing. Deletions detected by Sanger sequencing were scored for the exact number of nucleotides deleted.

HBB locus [3] = assay: Cas9 genome editing at the HBB locus, quantification of repair outcomes (reads); type: cell-based
Source text: The data is a representation of at least four independent experiments with a minimum of 350 reads per condition.
FIG. 12B is a graph depicting the percentage of modification observed in U2OS cells edited at the HBB locus with D10A Cas9 and 2 gRNAs with or without BRCA2 or Rad51. FF is a negative control.

| Substance | efficacy compared to wildtype Cas9 (HBB locus [1]; gRNAs HBB-8 and HBB-15) | predominant repair outcome of the induced DSBs (HBB locus [1]; gRNAs HBB-8 and HBB-15, no exogenous ss-ODN, 6 days after electroporation) | repair using the ss-ODN as a template (HBB locus [1]; gRNAs HBB-8 and HBB-15, with 50 pmols ss-ODN) | size of deletions (HBB locus [2]) | repair pathway of the double strand breaks generated (HBB locus [3]) | engagement of the 5′ protruding end in HDR (HBB locus [3]; PAM facing in the opposite orientation, presence of a single-stranded oligonucleotide donor template nucleic acid) |
| --- | --- | --- | --- | --- | --- | --- |
| D10A: Cas9 nickase mutant (RuvC domain catalytic mutant); two gRNAs with PAMs outwards give 5′ protruding arms | comparable levels of efficacy compared to wildtype Cas9 | predominantly repaired by the gene conversion pathway | most efficient repair | mostly larger in nature | – | – |
| D10A Cas9 mutant: Cas9 nickase with D10A mutation; D10A inactivates RuvC, only HNH activity; leaves 5′ protruding ends | – | – | – | – | predominantly repaired by HR | more prone to be engaged in HDR |
